# Reference: patent US11766451B2, “Utilizing polymers and antibiotics to enhance antimicrobial activity and inhibit antibiotic resistance” (International Business Machines Corporation, priority 2018, dated 2023)
# Entries after “also recorded” stand apart in the source; their conditions may differ.
# How the values were obtained:
# A. baumannii BAA-1709 [1] = assay type: cell-based, Acinetobacter baumannii; conditions: for MIC of pure antibiotic over 30 generations: antibiotic only; for Delay of resistance of the bacteria against the antibiotic: in the presence of example polycarbonate 200 at ¼×MICp
# Description: To monitor development of antibiotic 306 resistance in A. baumannii, antibiotics 306 at sub-lethal doses were used in combination with the example polycarbonate 200 to repeatedly treat A. baumannii BAA-1709. With concentrations of the example polycarbonate 200 fixed at ¼ or ½×MIC, the MIC of antibiotics 306 was measured by the broth microdilution method. At half of the antibiotic 306 MIC, the survived bacteria, which reached logarithmic growth phase, were collected for MIC measurement of the subsequent passage. The development of antibiotic 306 resistance was monitored for 30 passages and the MIC of the antibiotics 306 at ¼ or ½×MIC of the antimicrobial polymer (e.g., characterized by the first chemical structure 100 and/or the second chemical structure 102) was recorded for each passage. The resistance development of antibiotics 306 only and polymer only was also evaluated over 30 passages.
# A. baumannii (BAA-1709) = experiment: Checkerboard / broth microdilution MIC; assay type: cell-based, Acinetobacter baumannii; conditions: for Change of antibiotic MIC as polymer concentration increased from 1/16×MICp to ½×MICp: with example polycarbonate 200 (table 500); for MIC of rifampicin at 1/2 × MIC of adjuvant: rifampicin with the labelled adjuvant at 1/2 × its MIC; for MIC of rifampicin at 1/4 × MIC of adjuvant: rifampicin with the labelled adjuvant at 1/4 × its MIC; for MIC of rifampicin at 1/8 × MIC of adjuvant: rifampicin with the labelled adjuvant at 1/8 × its MIC
# Excerpt: To evaluate antibacterial activity of antimicrobial polymer-antibiotic 306 combination therapies, the checkerboard method was used to create chart 400. By using this method, the minimum inhibitory concentration (“MIC”) of antibiotics 306, antimicrobial polymers (e.g., characterized by the first chemical structure 100 and/or the second chemical structure 102), and/or antibiotics 306/antimicrobial polymers (e.g., characterized by the first chemical structure 100 and/or the second chemical structure 102) combination at varying polymer concentrations can be determined. MIC was measured based on the broth microdilution method. 50 microliters (“μL”) of the example polycarbonate 200 at a serious of concentrations (micrograms per milliliter (μg/mL)) was added into a 96-well plate. […] Microbes (e.g., S. aureus, A. baumannii, E. coli, and/or P. aeruginosa) at exponential growth phases were diluted with […] (“MHB”) to about 10^5 colony forming units (“CFU”) per milliliter (CFU/mL), and 100 μL of diluted microbes were added into each well of the 96-well plate with 100 μL of antimicrobial polymer-antibiotic 306 mixture. The 96-well plate was incubated at 37 degrees Celsius (“° C.”) under shaking of 100 revolutions per minute (“rpm”) for about 18 to 20 hours. The concentration at which there was no bacterial growth observed by naked eyes or a microplate reader at 600 nanometers (nm) was recorded as the MIC. The checkerboard experiments were performed three times for each antimicrobial polymer-antibiotic 306 combination.
# E. coli = experiment: Checkerboard / broth microdilution MIC; assay type: cell-based, Escherichia coli
# Excerpt: To evaluate antibacterial activity of antimicrobial polymer-antibiotic 306 combination therapies, the checkerboard method was used to create chart 400. By using this method, the minimum inhibitory concentration (“MIC”) of antibiotics 306, antimicrobial polymers (e.g., characterized by the first chemical structure 100 and/or the second chemical structure 102), and/or antibiotics 306/antimicrobial polymers (e.g., characterized by the first chemical structure 100 and/or the second chemical structure 102) combination at varying polymer concentrations can be determined. MIC was measured based on the broth microdilution method. 50 microliters (“μL”) of the example polycarbonate 200 at a serious of concentrations (micrograms per milliliter (μg/mL)) was added into a 96-well plate. […] Microbes (e.g., S. aureus, A. baumannii, E. coli, and/or P. aeruginosa) at exponential growth phases were diluted with […] (“MHB”) to about 10^5 colony forming units (“CFU”) per milliliter (CFU/mL), and 100 μL of diluted microbes were added into each well of the 96-well plate with 100 μL of antimicrobial polymer-antibiotic 306 mixture. […] The concentration at which there was no bacterial growth observed by naked eyes or a microplate reader at 600 nanometers (nm) was recorded as the MIC. […]
# A. baumannii BAA-1709 [2] = experiment: Killing kinetics (CFU counting) under combination treatments; assay type: cell-based, Acinetobacter baumannii; conditions: rifampicin 0.008 μg/mL plus the labelled adjuvant at ½×MIC; up to 24 h
# Excerpt: To compare the efficiency of an antimicrobial polymer/rifampicin combination and an antimicrobial polymer/polymyxin combination, the CFU of A. baumannii BAA-1709 under different combination treatments were studied. […] The results of CFU counting are presented as mean±standard deviation of triplicate samples.
# [3] = tested on: A. baumannii (e.g., ATCC BAA-1709); experiment: Bacterial count after 18 hours of treatment; assay type: cell-based, Acinetobacter baumannii; conditions: treatment for 18 hours; polymer 3.9 or 7.8 μg/mL (graph 1002)
# Description: The results shown in graph 1002 were achieved after treatment for 18 hours.
# Further, FIG. 11 illustrates a diagram of example, non-limiting graph 1102, graph 1110, and/or graph 1118, which can depict that one or more combination therapies comprising one or more antimicrobial polymers (e.g., characterized by the first chemical structure 100, such as example polycarbonate 200, and/or the second chemical structure 102) and one or more antibiotics 306 can show stronger synergistic bactericidal effect than traditional combination therapies as evidenced by the bacterial count after 18 hours of treating A. baumannii (e.g., ATCC BAA-1709).
# [4] = tested on: antibiotic-resistant strains of bacteria (e.g., A. baumannii); experiment: MIC against susceptible and antibiotic-resistant strains (table 700); assay type: cell-based, Acinetobacter baumannii
# Excerpt: In addition to antibiotic-susceptible bacteria, antibiotic-resistant strains of bacteria (e.g., indicated with a star in FIG. 7) were also employed to study the effect of antibiotic 306/example polycarbonate 200 combination on antibacterial activity.
# E. aerogenes = experiment: Concentrations (1/2 MIC, MBC) for 18 h bactericidal plate test; assay type: cell-based; conditions: Klebsiella aerogenes, used together with example polycarbonate 200 at ½ MIC, read-out: minimum bactericidal concentration (“MBC”)
# Excerpt: (§1) FIG. 13 illustrates a diagram of example, non-limiting table 1300 and/or table 1302, which can depict the synergistic effect of one or more combination therapies, which can comprise one or more antimicrobial polymers (e.g., characterized by the first chemical structure 100 and/or the second chemical structure 102) in combination with one or more antibiotics 306, against various bacteria (e.g., Gram-negative bacteria and/or Gram-positive bacteria) including antibiotic-resistant strains. Repetitive description of like elements employed in other embodiments described herein is omitted for sake of brevity.
# (§2) Further, FIG. 13 illustrates a diagram of example, non-limiting photos 1304 of three-component plates with bacteria treated by example polycarbonate 200, rifampicin, and/or a combination thereof for 18 hours. […] The data and/or photos 1304 depicted in FIG. 13 can be representative of three biological replicates, with the “*” denoting antibiotic-resistant strains of bacteria.
# K. pneumoniae = experiment: as above; assay type: cell-based; conditions: Klebsiella pneumoniae, used together with example polycarbonate 200 at ½ MIC, read-out: minimum bactericidal concentration (“MBC”)
# Excerpt: as §1, §2
# A. baumannii strains = experiment: as above; assay type: cell-based; conditions: Acinetobacter baumannii; all the A. baumannii strains; used together with example polycarbonate 200 at ½ MIC; read-out: minimum bactericidal concentration (“MBC”)
# Excerpt: as §1, §2
# [5] = repeated sub-MIC exposure, no polymer
molecule,measurement,setting,value
CC[C@H]1OC(=O)[C@H](C)[C@@H](O[C@H]2C[C@@](C)(OC)[C@@H](O)[C@H](C)O2)[C@H](C)[C@@H](O[C@@H]2O[C@H](C)C[C@H](N(C)C)[C@H]2O)[C@](C)(O)C[C@@H](C)CN(C)[C@H](C)[C@@H](O)[C@]1(C)O [azithromycin],MIC of pure antibiotic over 30 generations,A. baumannii BAA-1709 [1],increased
same,MIC of antibiotic over 30 generations in the presence of example polycarbonate 200 at ¼×MICp,A. baumannii BAA-1709 [1]; polymer fixed at ¼×MICp,did not change
same,Change of antibiotic MIC as polymer concentration increased from 1/16×MICp to ½×MICp,A. baumannii (BAA-1709),significantly reduced
same,Effect of example polycarbonate 200 on antibiotic potency,E. coli,enhance the potency
Polymyxin B,Bactericidal activity of rifampicin combined with adjuvant (CFU over time),A. baumannii BAA-1709 [2],no bactericidal activity over 24 h; also recorded: no bactericidal effect up to 24 hours
same,MIC of rifampicin at 1/2 × MIC of adjuvant,A. baumannii (BAA-1709),0.5 µg/mL
same,MIC of rifampicin at 1/4 × MIC of adjuvant,A. baumannii (BAA-1709),2.0 µg/mL
same,MIC of rifampicin at 1/8 × MIC of adjuvant,A. baumannii (BAA-1709),3.9 µg/mL
"CC1(C)S[C@@H]2[C@H](NC(=O)Cc3ccccc3)C(=O)N2[C@H]1C(=O)O [Penicillin G, Benzylpenicillin]",MIC of pure antibiotic over 30 generations,A. baumannii BAA-1709 [1],increased
same,Delay of resistance of the bacteria against the antibiotic,A. baumannii BAA-1709 [1],22 generations
same,MIC of pure antibiotic at generation 5,A. baumannii BAA-1709 [1]; [5],125 µg/mL
same,MIC of pure antibiotic at generation 30,A. baumannii BAA-1709 [1]; [5],1000 µg/mL
same,MIC of pure antibiotic before resistance evolution,A. baumannii BAA-1709 [1]; starting value,62.5 µg/mL
same,MIC of antibiotics 306 w/o polymer,"A. baumannii (BAA-1709); antibiotic alone, no polymer",62.5 µg/mL
same,Change of antibiotic MIC as polymer concentration increased from 1/16×MICp to ½×MICp,A. baumannii (BAA-1709),significantly reduced
same,MIC of antibiotics 306 at 1/2 × MICp,A. baumannii (BAA-1709); with example polyionene 206 at 1/2 × MICp (MICp 7.8 μg/mL),7.8 µg/mL
same,MIC of antibiotics 306 at 1/4 × MICp,A. baumannii (BAA-1709); with example polyionene 206 at 1/4 × MICp (MICp 7.8 μg/mL),31.3 µg/mL
same,MIC of antibiotics 306 at 1/8 × MICp,A. baumannii (BAA-1709); with example polyionene 206 at 1/8 × MICp (MICp 7.8 μg/mL),62.5 µg/mL
same,MIC of antibiotics 306 at 1/16 × MICp,A. baumannii (BAA-1709); with example polyionene 206 at 1/16 × MICp (MICp 7.8 μg/mL),62.5 µg/mL
colistin,Bactericidal activity of rifampicin combined with adjuvant (CFU over time),A. baumannii BAA-1709 [2],no bactericidal activity over 24 h; also recorded: no bactericidal effect up to 24 hours
same,Effective dose of colistin as concentration of example polycarbonate 200 increases,[3],reduced
same,MIC of rifampicin at 1/2 × MIC of adjuvant,A. baumannii (BAA-1709),0.06 µg/mL
same,MIC of rifampicin at 1/4 × MIC of adjuvant,A. baumannii (BAA-1709),2.0 µg/mL
same,MIC of rifampicin at 1/8 × MIC of adjuvant,A. baumannii (BAA-1709),3.9 µg/mL
CO[C@H]1/C=C/O[C@@]2(C)Oc3c(C)c(O)c4c(O)c(c(/C=N/N5CCN(C)CC5)c(O)c4c3C2=O)NC(=O)/C(C)=C\C=C\[C@H](C)[C@H](O)[C@@H](C)[C@@H](O)[C@@H](C)[C@H](OC(C)=O)[C@@H]1C [rifampicin],Delay of resistance of the bacteria against the antibiotic,A. baumannii BAA-1709 [1],17 generations
same,MIC of rifampicin at antimicrobial polymer concentration of ¼×MICp,"[4]; antibiotic-resistant strains, with example polycarbonate 200",0.5 µg/mL
same,MIC reduction of rifampicin with polycarbonates of first chemical structure 100,[4]; both susceptible and antibiotic-resistant A. baumannii strains,up to 2048 fold
same,MIC reduction compared with pure rifampicin,A. baumannii (BAA-1709); with example polycarbonate 200,over 2000 folds
same,MIC of antibiotic in the presence of the antimicrobial polymer at ¼×MICp,"A. baumannii (BAA-1709); with example polycarbonate 200 at ¼×MICp (e.g., 4 μg/mL)",0.13 µg/mL
same,MIC of antibiotic in the presence of the antimicrobial polymer at ½×MICp,"A. baumannii (BAA-1709); with example polycarbonate 200 at ½×MICp (e.g., 8 μg/mL)",0.002 µg/mL
same,MBC,E. aerogenes,2 µg/mL
same,MBC,K. pneumoniae,0.5 µg/mL
same,MBC,A. baumannii strains,0.015 µg/mL
same,MIC reduction at ½×MICp of the antimicrobial polymer,E. coli; with example polycarbonate 200 at ½×MICp,over 500 fold
